Measured values taken from ChEMBL document CHEMBL2375290, “Nonclassical antifolates, part 3: synthesis, biological evaluation and molecular modeling study of some new 2-heteroarylthio-quinazolin-4-ones” (Eur J Med Chem, 2013).

What was measured:
Dihydrofolate reductase = target: T1, Dihydrofolate reductase (Bos taurus, UniProt P00376); assay: Inhibition of bovine DHFR after 2 mins by spectrophotometry
T1 sequence (P00376 whole entry): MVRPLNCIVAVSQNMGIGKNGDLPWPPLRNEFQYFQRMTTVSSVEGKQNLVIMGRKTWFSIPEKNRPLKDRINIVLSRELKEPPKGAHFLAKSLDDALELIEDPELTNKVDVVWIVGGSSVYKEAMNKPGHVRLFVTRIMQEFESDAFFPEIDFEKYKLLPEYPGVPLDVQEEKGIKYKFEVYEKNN

RPMI-8226 = assay: Cytotoxicity against human RPMI8226 cells at 10 uM after 48 hrs by coulter counter analysis; type: functional; conditions: RPMI-8226, 48 h, read-out: GI
T47D = assay: Cytotoxicity against human T47D cells at 10 uM after 48 hrs by coulter counter analysis; type: functional; conditions: read-out: GI
Micrococcus luteus = assay: Antimicrobial activity against Micrococcus luteus at 200 ug after 24 hrs by agar disc diffusion method; type: functional; conditions: read-out: DIZ
UACC-62 = assay: Cytotoxicity against human UACC62 cells at 10 uM after 48 hrs by coulter counter analysis; type: functional; conditions: UACC-62, 48 h, read-out: GI
SK-MEL-5 = assay: Cytotoxicity against human SK-MEL-5 cells at 10 uM after 48 hrs by coulter counter analysis; type: functional; conditions: SK-MEL-5, 48 h, read-out: GI
NCI-H23 = assay: Cytotoxicity against human NCI-H23 cells at 10 uM after 48 hrs by coulter counter analysis; type: functional; conditions: NCI-H23, 48 h, read-out: GI
SN12C = assay: Cytotoxicity against human SN12C cells at 10 uM after 48 hrs by coulter counter analysis; type: functional; conditions: read-out: GI
HL-60(TB) = assay: Cytotoxicity against human HL-60(TB) cells at 10 uM after 48 hrs by coulter counter analysis; type: functional; conditions: HL-60, 48 h, read-out: GI
Hs-578T = assay: Cytotoxicity against human Hs578T cells at 10 uM after 48 hrs by coulter counter analysis; type: functional; conditions: read-out: GI
MDA-MB-231 = assay: Cytotoxicity against human MDA-MB-231 cells at 10 uM after 48 hrs by coulter counter analysis; type: functional; conditions: MDA-MB-231, 48 h, read-out: GI
A549 = assay: Cytotoxicity against human A549/ATCC cells at 10 uM after 48 hrs by coulter counter analysis; type: functional; conditions: A549, 48 h, read-out: GI
Staphylococcus aureus = assay: Antimicrobial activity against Staphylococcus aureus at 200 ug after 24 hrs by agar disc diffusion method; type: functional; conditions: read-out: DIZ
CCRF-CEM = assay: Cytotoxicity against human CCRF-CEM cells at 10 uM after 48 hrs by coulter counter analysis; type: functional; conditions: read-out: GI
Escherichia coli = assay: Antimicrobial activity against Escherichia coli at 200 ug after 24 hrs by agar disc diffusion method; type: functional; conditions: read-out: DIZ
IGROV-1 = assay: Cytotoxicity against human IGROV1 cells at 10 uM after 48 hrs by coulter counter analysis; type: functional; conditions: IGROV-1, 48 h, read-out: GI
CAKI-1 = assay: Cytotoxicity against human Caki1 cells at 10 uM after 48 hrs by coulter counter analysis; type: functional; conditions: CAKI-1, 48 h, read-out: GI
A498 = assay: Cytotoxicity against human A498 cells at 10 uM after 48 hrs by coulter counter analysis; type: functional; conditions: A498, 48 h, read-out: GI
UO-31 = assay: Cytotoxicity against human UO31 cells at 10 uM after 48 hrs by coulter counter analysis; type: functional; conditions: UO-31, 48 h, read-out: GI
NCI-H226 = assay: Cytotoxicity against human NCI-H226 cells at 10 uM after 48 hrs by coulter counter analysis; type: functional; conditions: NCI-H226, 48 h, read-out: GI
[1] = Cytotoxicity against human NCI-ADR-RES cells at 10 uM after 48 hrs by coulter counter analysis; type: functional; conditions: read-out: GI
MDA-MB-435 = assay: Cytotoxicity against human MDA-MB-435 cells at 10 uM after 48 hrs by coulter counter analysis; type: functional; conditions: MDA-MB-435, 48 h, read-out: GI
SF-295 = assay: Cytotoxicity against human SF295 cells at 10 uM after 48 hrs by coulter counter analysis; type: functional; conditions: SF-295, 48 h, read-out: GI
SNB-19 = assay: Cytotoxicity against human SNB19 cells at 10 uM after 48 hrs by coulter counter analysis; type: functional; conditions: SNB-19, 48 h, read-out: GI
LOX IMVI = assay: Cytotoxicity against human LOXIMVI cells at 10 uM after 48 hrs by coulter counter analysis; type: functional; conditions: read-out: GI
MOLT-4 = assay: Cytotoxicity against human MOLT4 cells at 10 uM after 48 hrs by coulter counter analysis; type: functional; conditions: MOLT-4, 48 h, read-out: GI
Bacillus subtilis = assay: Antimicrobial activity against Bacillus subtilis at 200 ug after 24 hrs by agar disc diffusion method; type: functional; conditions: read-out: DIZ
[2] = Cytotoxicity against human EKVX cells at 10 uM after 48 hrs by coulter counter analysis; type: functional; conditions: read-out: GI
RXF 393 = assay: Cytotoxicity against human RXF393 cells at 10 uM after 48 hrs by coulter counter analysis; type: functional; conditions: RXF 393, 48 h, read-out: GI
SR = assay: Cytotoxicity against human SR cells at 10 uM after 48 hrs by coulter counter analysis; type: functional; conditions: read-out: GI
MCF7 = assay: Cytotoxicity against human MCF7 cells at 10 uM after 48 hrs by coulter counter analysis; type: functional; conditions: MCF7, 48 h, read-out: GI
SNB-75 = assay: Cytotoxicity against human SNB75 cells at 10 uM after 48 hrs by coulter counter analysis; type: functional; conditions: SNB-75, 48 h, read-out: GI
OVCAR-4 = assay: Cytotoxicity against human OVCAR4 cells at 10 uM after 48 hrs by coulter counter analysis; type: functional; conditions: OVCAR-4, 48 h, read-out: GI
NCI-H522 = assay: Cytotoxicity against human NCI-H522 cells at 10 uM after 48 hrs by coulter counter analysis; type: functional; conditions: NCI-H522, 48 h, read-out: GI
Malme-3M = assay: Cytotoxicity against human MALME-3M cells at 10 uM after 48 hrs by coulter counter analysis; type: functional; conditions: read-out: GI
Pseudomonas aeruginosa = assay: Antimicrobial activity against Pseudomonas aeruginosa at 200 ug after 24 hrs by agar disc diffusion method; type: functional; conditions: read-out: DIZ
PC-3 = assay: Cytotoxicity against human PC3 cells at 10 uM after 48 hrs by coulter counter analysis; type: functional; conditions: PC-3, 48 h, read-out: GI

Compound | IC50 (Dihydrofolate reductase) [nM] | inhibition of growth at 10 µM (RPMI-8226) [%] | inhibition of growth at 10 µM (T47D) [%] | zone of inhibition at 200 µg/disc (Micrococcus luteus) [mm] | inhibition of growth at 10 µM (UACC-62) [%] | inhibition of growth at 10 µM (SK-MEL-5) [%] | inhibition of growth at 10 µM (NCI-H23) [%] | inhibition of growth at 10 µM (SN12C) [%] | inhibition of growth at 10 µM (HL-60(TB)) [%] | inhibition of growth at 10 µM (Hs-578T) [%] | inhibition of growth at 10 µM (MDA-MB-231) [%] | inhibition of growth at 10 µM (A549) [%] | zone of inhibition at 200 µg/disc (Staphylococcus aureus) [mm] | inhibition of growth at 10 µM (CCRF-CEM) [%] | zone of inhibition at 200 µg/disc (Escherichia coli) [mm] | inhibition of growth at 10 µM (IGROV-1) [%] | inhibition of growth at 10 µM (CAKI-1) [%] | inhibition of growth at 10 µM (A498) [%] | zone of inhibition at 200 µg/disc (Bacillus subtilis) [mm] | zone of inhibition at 200 µg/disc (Pseudomonas aeruginosa) [mm] | also measured
O=C(O)c1cccnc1Sc1nc2ccc(Cl)cc2c(=O)n1Cc1ccccc1 | 10000 | 16.3 | 14.1 | 8 | 16.7 | < 10 | < 10 | < 10 | < 10 | < 10 | 24.7 | < 10 | 14 | 17.8 | 8 | 14.7 | 30.3 | < 10 | 18 | 8 | inhibition of growth at 10 µM (UO-31): 20.3%; inhibition of growth at 10 µM (NCI-H226): 18.4%; inhibition of growth at 10 µM [1]: < 10%; inhibition of growth at 10 µM (MDA-MB-435): < 10%; inhibition of growth at 10 µM (SF-295): 15.7%; inhibition of growth at 10 µM (SNB-19): < 10%; inhibition of growth at 10 µM (LOX IMVI): 13.6%; inhibition of growth at 10 µM (MOLT-4): 16.7%; inhibition of growth at 10 µM [2]: 25.4%; inhibition of growth at 10 µM (RXF 393): < 10%; inhibition of growth at 10 µM (SR): 32.8%; inhibition of growth at 10 µM (MCF7): < 10%; inhibition of growth at 10 µM (SNB-75): 18.4%; inhibition of growth at 10 µM (OVCAR-4): 20.6%; inhibition of growth at 10 µM (NCI-H522): 13.1%; inhibition of growth at 10 µM (Malme-3M): < 10%; inhibition of growth at 10 µM (PC-3): 25.2%
CCOC(=O)c1nc(N)sc1Sc1nc2cc(OC)c(OC)cc2c(=O)n1Cc1ccccc1 | 2000 |  |  | 8 |  |  |  |  |  |  |  |  | 18 |  | 8 |  |  |  | 20 | 8 | 
Cc1ccc2nc(Sc3cnc(N)s3)n(-c3ccccc3)c(=O)c2c1 | 800 | < 10 | < 10 | 8 | < 10 | < 10 | < 10 | < 10 | < 10 | < 10 | 18.1 | < 10 | 8 | < 10 | 8 | 14.3 | 20.9 | < 10 | 8 | 8 | inhibition of growth at 10 µM (UO-31): 20.7%; inhibition of growth at 10 µM (NCI-H226): 12.4%; inhibition of growth at 10 µM [1]: < 10%; inhibition of growth at 10 µM (MDA-MB-435): < 10%; inhibition of growth at 10 µM (SF-295): < 10%; inhibition of growth at 10 µM (SNB-19): < 10%; inhibition of growth at 10 µM (LOX IMVI): < 10%; inhibition of growth at 10 µM (MOLT-4): < 10%; inhibition of growth at 10 µM [2]: < 10%; inhibition of growth at 10 µM (RXF 393): < 10%; inhibition of growth at 10 µM (SR): 37.8%; inhibition of growth at 10 µM (MCF7): < 10%; inhibition of growth at 10 µM (SNB-75): < 10%; inhibition of growth at 10 µM (OVCAR-4): < 10%; inhibition of growth at 10 µM (NCI-H522): 13.8%; inhibition of growth at 10 µM (Malme-3M): < 10%; inhibition of growth at 10 µM (PC-3): 10.1%
COc1cc2nc(Sc3cc([N+](=O)[O-])ccc3C(=O)O)n(Cc3ccccc3)c(=O)c2cc1OC | 3000 |  |  | 8 |  |  |  |  |  |  |  |  | 18 |  | 8 |  |  |  | 8 | 8 | 
CCOC(=O)c1nc(N)sc1Sc1nc2cc(OC)c(OC)cc2c(=O)n1-c1ccccc1 | 300 |  |  | 8 |  |  |  |  |  |  |  |  | 8 |  | 8 |  |  |  | 8 | 8 | 
